# According to patent publication US20150322083A1, “(THIENO[2,3-b][1,5]BENZOXAZEPIN-4-YL)PIPERAZIN-1-YL COMPOUNDS AS SELECTIVE 5-HT2A INVERSE AGONISTS” (Eli Lilly and Company, priority 2014, published 2015):
# How the values were obtained:
# Dopamine D2 = Dopamine D2 (Homo sapiens, UniProt P14416); assay: Dopamine D2 binding
# Description: (§1) Curves are evaluated using a 4-parameter logistic nonlinear equation to obtain the concentration of competitor causing 50% inhibition of radioligand binding (IC50). Equilibrium dissociation constants (Ki) are calculated according to the equation Ki=IC50/(1+L/Kd), where L equals the concentration of radioligand used in the experiment and Kd equals the equilibrium dissociation constant of the radioligand for the receptor, determined from standard saturation analysis or homologous competition experiments. Reported values for Ki, where n values are indicated, are shown as geometric mean±the standard error of the mean (SEM), with the number of replicate determinations indicated by n. Geometric means are calculated by the equation GeoMean=10̂(Average(log Ki 1+log Ki 2+ . . . log Ki n)/[…]).
# (§2) Further, the compounds of the invention may be tested in binding assays and functional activity assays by well known methods for other physiologically important receptors such as, but not limited to, the hERG channel, other serotonin receptors (specifically 5-HT1B receptors, lack of agonist activity at 5-HT2B receptors, 5-HT2C, 5-HT5, 5-HT6, and 5-HT7 receptors), dopaminergic receptors (specifically D1, D2, and D3), H1 receptors, GABAA receptors, adrenergic receptors and monoamine transporters.
# Adrenergic alpha1B = Adrenergic alpha1B (Homo sapiens, UniProt P35368); assay: Adrenergic alpha1B binding
# Adrenergic alpha1B, sequence (P35368 whole entry): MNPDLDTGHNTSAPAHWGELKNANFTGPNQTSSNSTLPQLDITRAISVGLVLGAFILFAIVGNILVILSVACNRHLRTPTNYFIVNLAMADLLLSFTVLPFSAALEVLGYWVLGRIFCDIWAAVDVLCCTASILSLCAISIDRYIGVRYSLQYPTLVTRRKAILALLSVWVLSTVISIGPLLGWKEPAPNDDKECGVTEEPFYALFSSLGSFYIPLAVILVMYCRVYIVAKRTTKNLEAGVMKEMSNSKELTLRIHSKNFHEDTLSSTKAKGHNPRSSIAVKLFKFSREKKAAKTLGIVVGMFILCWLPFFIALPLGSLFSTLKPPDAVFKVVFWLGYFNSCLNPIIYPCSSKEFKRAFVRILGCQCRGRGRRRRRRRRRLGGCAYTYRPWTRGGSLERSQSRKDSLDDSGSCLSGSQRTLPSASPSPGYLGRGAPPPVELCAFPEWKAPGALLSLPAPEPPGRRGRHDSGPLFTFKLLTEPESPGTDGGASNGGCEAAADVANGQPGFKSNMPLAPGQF
# Description: as §1, §2
# [1] = system: sleep and locomotor activity of rats; assay: Sleep and behavioral monitoring in rats (EEG, EMG, motion); type: in vivo; settings: rat; for Rebound Insomnia, Adj. Mean: NREM + REM sleep in 7th-9th hours post-treatment; for Rebound Insomnia, Adj. Mean / REM inhibition, Adj. Mean / Cumulative NREM sleep, Adj. Mean / Cumulative Total sleep, Adj. Mean / Locomotor Activity Intensity, Adj. Mean: difference from vehicle; for REM inhibition, Adj. Mean: REM sleep in first 12 hr. post-treatment; for Average Sleep Bout, Adj. Mean / Longest Sleep Bout / Cumulative NREM sleep, Adj. Mean / Cumulative Total sleep, Adj. Mean / Locomotor Activity Intensity, Adj. Mean: first 6 hr. post-treatment
# Description: Sleep and behavioral monitoring in rats: The compounds of the present invention may be tested in rats for their ability to increase the amount of sleep or decrease sleep interruption or both without undesired effects such as inhibition of REM sleep, waking motor impairment, and/or rebound insomnia. Test animals are continuously monitored by electro-encephalograms (EEG), electromyograms (EMG), and motion to measure cumulative nonREM sleep, cumulative total sleep, average sleep bout duration, longest sleep bout duration, rebound insomnia, REM sleep inhibition and locomotor activity intensity during wakefulness. Methods for such studies are known in the art (see for example methods described in Edgar D M, Seidel W F. Modafinil induces wakefulness without intensifying motor activity or subsequent rebound hypersomnolence in the rat. J Pharmacology & Experimental Therapeutics 1997; 283: 757-769; van Gelder R N, Edgar D M, Dement W C. Real-time automated sleep scoring: validation of a microcomputer-based system for mice. Sleep 1991, 14: 48-55; and Gross B A, Walsh C M, Turakhia A A, Booth V, Mashour G A, Poe G R. Open-source logic-based automated sleep scoring software using electrophysiological recordings in rats. J Neurosci Methods. 2009; 184(1):10-8.) Studies are conducted as follows:
# Animal preparation. Adult, male Wistar rats (approximately 270-300 g at time of surgery) are surgically fitted for chronic recording of EEG, EMG, and motion as follows: Rats are surgically prepared with a cranial implant consisting of four stainless steel screws for EEG recording (two frontal [3.9 mm anterior from bregma, and ±2.0 mm mediolaterally] and two occipital [6.4 mm posterior from bregma, ±5.5 mm mediolaterally]), and with two Teflon-coated stainless steel wires for EMG recording (positioned under the nuchal trapezoid muscles). All leads are soldered to a miniature connector (Microtech, Boothwyn, Pa.) prior to surgery. The implant assembly is affixed to the skull by the combination of the stainless steel EEG recording screws, cyanoacrylate applied between the implant connector and skull, and dental acrylic. Locomotor activity is monitored via a miniature transmitter (Minimitter PDT4000G, Philips Respironics, Bend, Oreg.) surgically placed into the abdomen. At least 3 weeks are allowed for recovery.
# Recording environment. Each rat is housed individually within a microisolator cage modified with an inserted polycarbonate filter-top riser to allow more vertical headroom. A flexible cable that minimally restricts movement is connected at one end to a commutator afixed to the cage top and at the other end to the animal's cranial implant. Each cage is located within separate, ventilated compartments of a stainless steel sleep-wake recording chamber. Food and water are available ad libitum and the ambient temperature is maintained at about 23±1° C. A 24-hr light-dark cycle (LD 12:12) using fluorescent light is maintained throughout the study. Relative humidity averages approximately 50%. Animals are undisturbed for at least 30 hrs before and after each treatment.
# Study design and dosing. The vehicle (placebo, methylcellulose 15 centipoise 0.25% in water) or one of the test compound dose levels is administered orally at 1 mL/kg pseudo-randomly such that no rat receives the same treatment twice, and no rat receives more than two of the 8 treatments in any one study. Each rat is removed from its cage for about a minute to be weighed and treated. At least 6 days “washout” period precede and follow each treatment.
# Data collection. […]
# [2] = PO, 6 hr. after treatment, 4 parameter logistic regression
# Dopamine D2, sequence (P14416 whole entry): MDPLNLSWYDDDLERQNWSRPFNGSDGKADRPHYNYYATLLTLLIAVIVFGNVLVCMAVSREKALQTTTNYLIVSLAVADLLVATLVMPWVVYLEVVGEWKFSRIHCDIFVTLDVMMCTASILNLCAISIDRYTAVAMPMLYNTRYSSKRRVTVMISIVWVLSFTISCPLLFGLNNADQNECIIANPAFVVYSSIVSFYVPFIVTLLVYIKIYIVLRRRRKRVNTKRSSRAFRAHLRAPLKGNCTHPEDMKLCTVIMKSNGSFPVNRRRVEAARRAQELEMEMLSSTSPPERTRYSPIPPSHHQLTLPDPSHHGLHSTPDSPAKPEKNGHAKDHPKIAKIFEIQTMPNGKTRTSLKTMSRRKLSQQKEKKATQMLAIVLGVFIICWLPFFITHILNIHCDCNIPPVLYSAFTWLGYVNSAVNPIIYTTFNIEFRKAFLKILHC
smiles,measurement,setting,value
"Cc1ccc2c(c1)Oc1sc(SC(C)C)cc1C(N1CCN(CC(C)(C)C(=O)O)CC1)=N2 [Example 1, 3-[4-(2-isopropylsulfanyl-8-methyl-thieno[2,3-b][1,5]benzoxazepin-4-yl)piperazin-1-yl]-2,2-dimethyl-propanoic acid]",Ki,Dopamine D2,> 7.66 µM
same,Ki,Adrenergic alpha1B,> 15.8 µM
same,"Rebound Insomnia, Adj. Mean",[1]; 0.1 mg/kg PO,-0.4 min
same,"REM inhibition, Adj. Mean",[1]; 0.1 mg/kg PO,0.5 min
same,"Average Sleep Bout, Adj. Mean",[1]; 0.1 mg/kg PO,1.09 n-fold increase over vehicle controls
same,Longest Sleep Bout,[1]; 0.1 mg/kg PO,0.85 n-fold increase over vehicle controls
same,"Cumulative NREM sleep, Adj. Mean",[1]; 0.1 mg/kg PO,14.6 min
same,"Cumulative Total sleep, Adj. Mean",[1]; 0.1 mg/kg PO,13.1 min
same,"Locomotor Activity Intensity, Adj. Mean",[1]; 0.1 mg/kg PO,−1.31 LMA counts per minute of EEG-defined wakefulness
same,"Rebound Insomnia, Adj. Mean",[1]; 0.25 mg/kg PO,-1.0 min
same,"REM inhibition, Adj. Mean",[1]; 0.25 mg/kg PO,1.4 min
same,"Average Sleep Bout, Adj. Mean",[1]; 0.25 mg/kg PO,1.32 n-fold increase over vehicle controls
same,Longest Sleep Bout,[1]; 0.25 mg/kg PO,1.49 n-fold increase over vehicle controls
same,"Cumulative NREM sleep, Adj. Mean",[1]; 0.25 mg/kg PO,17.8 min
same,"Cumulative Total sleep, Adj. Mean",[1]; 0.25 mg/kg PO,21.1 min
same,"Locomotor Activity Intensity, Adj. Mean",[1]; 0.25 mg/kg PO,−1.22 LMA counts per minute of EEG-defined wakefulness
same,"Rebound Insomnia, Adj. Mean",[1]; 0.5 mg/kg PO,4.4 min
same,"REM inhibition, Adj. Mean",[1]; 0.5 mg/kg PO,6.6 min
same,"Average Sleep Bout, Adj. Mean",[1]; 0.5 mg/kg PO,1.75 n-fold increase over vehicle controls
same,Longest Sleep Bout,[1]; 0.5 mg/kg PO,1.79 n-fold increase over vehicle controls
same,"Cumulative NREM sleep, Adj. Mean",[1]; 0.5 mg/kg PO,24.1 min
same,"Cumulative Total sleep, Adj. Mean",[1]; 0.5 mg/kg PO,28.2 min
same,"Locomotor Activity Intensity, Adj. Mean",[1]; 0.5 mg/kg PO,−1.49 LMA counts per minute of EEG-defined wakefulness
same,"Rebound Insomnia, Adj. Mean",[1]; 1 mg/kg PO,1.5 min
same,"REM inhibition, Adj. Mean",[1]; 1 mg/kg PO,5.6 min
same,"Average Sleep Bout, Adj. Mean",[1]; 1 mg/kg PO,1.71 n-fold increase over vehicle controls
same,Longest Sleep Bout,[1]; 1 mg/kg PO,1.89 n-fold increase over vehicle controls
same,"Cumulative NREM sleep, Adj. Mean",[1]; 1 mg/kg PO,30.0 min
same,"Cumulative Total sleep, Adj. Mean",[1]; 1 mg/kg PO,31.4 min
same,"Locomotor Activity Intensity, Adj. Mean",[1]; 1 mg/kg PO,−4.04 LMA counts per minute of EEG-defined wakefulness
same,"Rebound Insomnia, Adj. Mean",[1]; 3 mg/kg PO,8.8 min
same,"REM inhibition, Adj. Mean",[1]; 3 mg/kg PO,-1.4 min
same,"Average Sleep Bout, Adj. Mean",[1]; 3 mg/kg PO,1.75 n-fold increase over vehicle controls
same,Longest Sleep Bout,[1]; 3 mg/kg PO,2.17 n-fold increase over vehicle controls
same,"Cumulative NREM sleep, Adj. Mean",[1]; 3 mg/kg PO,31.5 min
same,"Cumulative Total sleep, Adj. Mean",[1]; 3 mg/kg PO,32.8 min
same,"Locomotor Activity Intensity, Adj. Mean",[1]; 3 mg/kg PO,−1.86 LMA counts per minute of EEG-defined wakefulness
same,"Rebound Insomnia, Adj. Mean",[1]; 10 mg/kg PO,2.5 min
same,"REM inhibition, Adj. Mean",[1]; 10 mg/kg PO,-4.4 min
same,"Average Sleep Bout, Adj. Mean",[1]; 10 mg/kg PO,2.01 n-fold increase over vehicle controls
same,Longest Sleep Bout,[1]; 10 mg/kg PO,2.29 n-fold increase over vehicle controls
same,"Cumulative NREM sleep, Adj. Mean",[1]; 10 mg/kg PO,38.3 min
same,"Cumulative Total sleep, Adj. Mean",[1]; 10 mg/kg PO,39.1 min
same,"Locomotor Activity Intensity, Adj. Mean",[1]; 10 mg/kg PO,−1.90 LMA counts per minute of EEG-defined wakefulness
same,"Rebound Insomnia, Adj. Mean",[1]; 20 mg/kg PO,2.1 min
same,"REM inhibition, Adj. Mean",[1]; 20 mg/kg PO,-9.3 min
same,"Average Sleep Bout, Adj. Mean",[1]; 20 mg/kg PO,1.88 n-fold increase over vehicle controls
same,Longest Sleep Bout,[1]; 20 mg/kg PO,1.90 n-fold increase over vehicle controls
same,"Cumulative NREM sleep, Adj. Mean",[1]; 20 mg/kg PO,40.2 min
same,"Cumulative Total sleep, Adj. Mean",[1]; 20 mg/kg PO,38.0 min
same,"Locomotor Activity Intensity, Adj. Mean",[1]; 20 mg/kg PO,−0.59 LMA counts per minute of EEG-defined wakefulness
same,apparent LMI impairment (in words),[1]; 1 mg/kg PO,statistically significant at that dose
same,REM sleep inhibition versus threshold value of -10 min. (in words),[1]; 20 mg/kg PO,exceeded the threshhold value
same,effect on cumulative NREM sleep time and cumulative total sleep time (in words),[1]; PO,statistically significant increase
same,"Estimated efficacy dose, Average sleep bout (1.5-fold increase)",[1]; [2],0.33 mg/kg
same,"Estimated efficacy dose, Longest sleep bout (1.75-fold increase)",[1]; [2],0.45 mg/kg
same,"Estimated efficacy dose, NREM accumulation = 30 min.",[1]; [2],1.5 mg/kg
same,"Estimated efficacy dose, Total sleep accumulation = 25 min.",[1]; [2],0.39 mg/kg
same,rebound insomnia or REM sleep inhibition (in words),"[1]; PO, at up to 10 times the conservative efficacy dose",without statistically significant rebound insomnia or REM sleep inhibition
